{"source": "patent US8911424B2", "about": "“Methods and devices for preventing catheter related urinary tract infections” (Ethicon, Inc., priority 2011, dated 2014)", "origin": "cited, not measured here", "conditions": "aqueous solubility", "data": [{"smiles": "[Br][Ag]", "note": "[Silver Bromide]", "values": [{"measurement": "Solubility (g/100 g H2O)", "result": 0.000014, "unit": "g/100 g H2O"}]}]}
